Numbers after ± are expanded uncertainties.

The conditions of the data set: Liquid; for mass density: 101.33 kPa, Vibrating tube method; for Normal boiling temperature: Ebulliometric method (Recirculating still).

The term mass density denotes mass per unit of volume. As to `COCOC` [dimethoxymethane], the Normal boiling temperature is 42.00 ± 0.2 °C. For the same compound, the mass density (303.15 K) was 848.59 ± 0.13 kg/m3.

With `COC(=O)OC` [dimethyl carbonate], the Normal boiling temperature turned out to be 90.00 ± 0.2 °C. Besides, under “298.15 K”, the mass density worked out at 1063.3 ± 0.12 kg/m3.

On to `COC=O` [methyl methanoate], for which the Normal boiling temperature turned out to be 31.50 ± 0.2 °C. In addition, under “288.15 K”, the mass density amounted to 980.82 ± 0.11 kg/m3.
